The compounds below were run against T1, BACE2 (Homo sapiens, UniProt Q9Y5Z0) (assay: Immunofluorescence Resonance Energy Transfer (FRET) assay for BACE2 inhibition). Details: pH 4.5; 5 μM TMEM27-based FRET peptide substrate.
T1 construct: BACE2 enzyme ectodomain (derived from plasmid “pET17b-T7-hu proBACE2”); T7 tag; made in house; a pET17b plasmid implies E. coli (own knowledge)
T1 sequence (Q9Y5Z0 63-473 limits assumed): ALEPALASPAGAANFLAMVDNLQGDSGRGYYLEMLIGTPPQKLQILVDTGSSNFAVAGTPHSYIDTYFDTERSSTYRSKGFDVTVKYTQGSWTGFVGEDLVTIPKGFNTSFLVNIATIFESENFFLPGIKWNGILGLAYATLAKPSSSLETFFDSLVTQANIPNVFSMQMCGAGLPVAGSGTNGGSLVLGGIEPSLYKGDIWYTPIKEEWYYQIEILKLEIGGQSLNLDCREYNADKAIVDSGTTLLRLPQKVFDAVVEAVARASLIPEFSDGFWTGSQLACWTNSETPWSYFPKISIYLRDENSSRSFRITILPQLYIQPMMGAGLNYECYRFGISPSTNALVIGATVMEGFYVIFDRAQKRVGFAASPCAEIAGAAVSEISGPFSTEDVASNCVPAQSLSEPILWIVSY
Assay type: biochemical
Procedure: BACE2 enzyme ectodomain (derived from plasmid “pET17b-T7-hu proBACE2”) was prepared as described in Ostermann et al., “Crystal Structure of Human BACE2 in Complex with a Hydroxyethylamine Transition-state Inhibitor”, Journal of Molecular Biology 2006, 355, 249-261. The pro-enzyme was stored at 4° C. at a concentration of 70 μg/ml.
The FRET assay was performed essentially as described in Grüninger-Leitch et al., Journal of Biological Chemistry (2002) 277(7) 4687-93 (“Substrate and inhibitor profile of BACE (beta-secretase) and comparison with other mammalian aspartic proteases”). In summary, a peptide is designed that is cleaved by the protease. The peptide is labelled with dabcyl at the N terminus and Lucifer Yellow at the C-terminus, such that for an intact peptide the Lucifer Yellow fluorescence is quenched by the dabcyl. When the peptide is cut by BACE2, the quenching is removed and a fluorescent signal is generated.
The assay was performed as described in Grueninger et al. 2002 at pH 4.5 using a substrate concentration of 5 μM. A FRET peptide based on the TMEM27 sequence was devised. dabcyl—[…]—LucY.
The assay readout is the initial rate of change of fluorescence intensity giving a relative measure of BACE2 activity. Small values correspond to high inhibition and larger values to low inhibition. […] IC50 values were determined using these assay values generated for a range of inhibitor concentrations and the curve fitting software XLfit (IDBS) using the Sigmoidal Dose-Response Model.

| Compound | IC50 [nM] |
| --- | --- |
| CC[C@@]1(c2cc(NC(=O)c3ccccn3)ccc2F)CCSC(N)=N1 [Example 3, Pyridine-2-carboxylic acid [3-((S)-2-amino-4-ethyl-5,6-dihydro-4H-[1,3]thiazin-4-yl)-4-fluoro-phenyl]-amide] | 1030 |
| CC[C@@]1(c2cc(NC(=O)c3nccc4ccsc34)ccc2F)CCSC(N)=N1 [Example 14, Thieno[2,3-c]pyridine-7-carboxylic acid [3-((S)-2-amino-4-ethyl-5,6-dihydro-4H-[1,3]thiazin-4-yl)-4-fluoro-phenyl]-amide] | 3080 |
| CC[C@@]1(c2cc(NC(=O)c3ncc(Cl)cn3)ccc2F)CCSC(N)=N1 [Example 6, 5-Chloro-pyrimidine-2-carboxylic acid [3-((S)-2-amino-4-ethyl-5,6-dihydro-4H-[1,3]thiazin-4-yl)-4-fluoro-phenyl]-amide] | 440 |
| CC[C@@]1(c2cc(NC(=O)c3nc(Cl)ccc3C(F)(F)F)ccc2F)CCSC(N)=N1 [Example 12, 6-Chloro-3-trifluoromethyl-pyridine-2-carboxylic acid [3-((S)-2-amino-4-ethyl-5,6-dihydro-4H-[1,3]thiazin-4-yl)-4-fluoro-phenyl]-amide] | 33500 |
| CC[C@@]1(c2cc(NC(=O)c3cccc(C)n3)ccc2F)CCSC(N)=N1 [Example 10, 6-Methyl-pyridine-2-carboxylic acid [3-((S)-2-amino-4-ethyl-5,6-dihydro-4H-[1,3]thiazin-4-yl)-4-fluoro-phenyl]-amide] | 50900 |
| CC[C@@]1(c2cc(NC(=O)c3ccc(Cl)cn3)ccc2F)CCSC(N)=N1 [Example 2, 5-Chloro-pyridine-2-carboxylic acid [3-((S)-2-amino-4-ethyl-5,6-dihydro-4H-[1,3]thiazin-4-yl)-4-fluoro-phenyl]-amide] | 8 |
| CC[C@@]1(c2cc(NC(=O)c3cc(Cl)ccn3)ccc2F)CCSC(N)=N1 [Example 9, 4-Chloro-pyridine-2-carboxylic acid [3-((S)-2-amino-4-ethyl-5,6-dihydro-4H-[1,3]thiazin-4-yl)-4-fluoro-phenyl]-amide] | 41000 |
| CC[C@@]1(c2cc(NC(=O)c3ccc(C)s3)ccc2F)CCSC(N)=N1 [Example 16, 5-Methyl-thiophene-2-carboxylic acid [3-((S)-2-amino-4-ethyl-5,6-dihydro-4H-[1,3]thiazin-4-yl)-4-fluoro-phenyl]-amide] | 667 |
| CC[C@@]1(c2cc(NC(=O)c3ncccc3-c3ccccc3)ccc2F)CCSC(N)=N1 [Example 8, 3-Phenyl-pyridine-2-carboxylic acid [3-((S)-2-amino-4-ethyl-5,6-dihydro-4H-[1,3]thiazin-4-yl)-4-fluoro-phenyl]-amide] | 4930 |
| CC[C@@]1(c2cc(NC(=O)c3csc(C)n3)ccc2F)CCSC(N)=N1 [Example 19, 2-Methyl-thiazole-4-carboxylic acid [3-((S)-2-amino-4-ethyl-5,6-dihydro-4H-[1,3]thiazin-4-yl)-4-fluoro-phenyl]-amide] | 33600 |
| CC[C@@]1(c2cc(NC(=O)c3cc4ccccc4s3)ccc2F)CCSC(N)=N1 [Example 15, Benzo[b]thiophene-2-carboxylic acid [3-((S)-2-amino-4-ethyl-5,6-dihydro-4H-[1,3]thiazin-4-yl)-4-fluoro-phenyl]-amide] | 916 |
| CC[C@@]1(c2cc(NC(=O)c3cnc(Cl)cn3)ccc2F)CCSC(N)=N1 [Example 5, 5-Chloro-pyrazine-2-carboxylic acid [3-((S)-2-amino-4-ethyl-5,6-dihydro-4H-[1,3]thiazin-4-yl)-4-fluoro-phenyl]-amide] | 1000 |
| CC[C@@]1(c2cc(NC(=O)c3ccc(Cl)cc3)ccc2F)CCSC(N)=N1 [Example 4, N-[3-((S)-2-Amino-4-ethyl-5,6-dihydro-4H-[1,3]thiazin-4-yl)-4-fluoro-phenyl]-4-chloro-benzamide] | 2700 |
| CC[C@@]1(c2cc(NC(=O)c3coc(C)n3)ccc2F)CCSC(N)=N1 [Example 18, 2-Methyl-oxazole-4-carboxylic acid [3-((S)-2-amino-4-ethyl-5,6-dihydro-4H-[1,3]thiazin-4-yl)-4-fluoro-phenyl]-amide] | 475 |
| CC[C@@]1(c2cc(NC(=O)c3nc(Cl)ccc3Cl)ccc2F)CCSC(N)=N1 [Example 11, 3,6-Dichloro-pyridine-2-carboxylic acid [3-((S)-2-amino-4-ethyl-5,6-dihydro-4H-[1,3]thiazin-4-yl)-4-fluoro-phenyl]-amide] | 23000 |
| CC[C@@]1(c2cc(NC(=O)c3cc4ccccc4cn3)ccc2F)CCSC(N)=N1 [Example 13, Isoquinoline-3-carboxylic acid [3-((S)-2-amino-4-ethyl-5,6-dihydro-4H-[1,3]thiazin-4-yl)-4-fluoro-phenyl]-amide] | 9100 |
| CC[C@@]1(c2cc(NC(=O)c3ccn(C)n3)ccc2F)CCSC(N)=N1 [Example 17, 1-Methyl-1H-pyrazole-3-carboxylic acid [3-((S)-2-amino-4-ethyl-5,6-dihydro-4H-[1,3]thiazin-4-yl)-4-fluoro-phenyl]-amide] | 2140 |
| CC[C@@]1(c2cc(NC(=O)c3ncccc3C(F)(F)F)ccc2F)CCSC(N)=N1 [Example 7, 3-Trifluoromethyl-pyridine-2-carboxylic acid [3-((S)-2-amino-4-ethyl-5,6-dihydro-4H-[1,3]thiazin-4-yl)-4-fluoro-phenyl]-amide] | 5460 |

From patent US20130096107A1, “USE OF AMINODIHYDROTHIAZINES FOR THE TREATMENT OR PREVENTION OF DIABETES” (Hoffmann-La Roche Inc., priority 2009, published 2013)
